In ChEMBL document CHEMBL5055616, “Discovery of Acyl-sulfonamide Nav1.7 Inhibitors GDC-0276 and GDC-0310” (J Med Chem, 2021):
Converted amounts (≈) assume the structure as drawn.

Tests used:
[1] = molecular target: Sodium channel protein type 5 subunit alpha (Homo sapiens, UniProt Q14524); test: Inhibition of human Nav1.5 expressed in HEK293 cells incubated for 1 hr in presence of veratridine and anthropleurin-C by sodium influx assay; format: cell-based
[2] = Metabolic stability in human liver microsomes assessed as intrinsic clearance at 1 uM measured upto 60 mins in presence of NADPH by LC-MS/MS analysis; format: ADME, Microsome; conditions: read-out: CLH
[3] = Metabolic stability in human hepatocytes assessed as intrinsic clearance at 1 uM measured upto 3 hrs by LC-MS/MS analysis; format: ADME, cell-based, Hepatocyte; conditions: read-out: CLH
[4] = Lipophilicity, logD of the compound at pH 7.4 by shake flask assay based LC-MS/MS analysis; format: physicochemical; conditions: buffer
Homo sapiens = species: Homo sapiens; test: Selectivity index, ratio of IC50 for human Nav1.5 expressed in HEK293 cells to IC50 for human Nav1.7 expressed in HEK293 cells; format: cell-based
[5] = molecular target: Sodium channel protein type 1 subunit alpha (Homo sapiens, UniProt P35498); test: Inhibition of full length human Nav1.1 expressed in HEK cells by whole cell voltage clamp analysis; format: cell-based
[6] = molecular target: Sodium channel protein type 2 subunit alpha (Homo sapiens, UniProt Q99250); test: Inhibition of full length human Nav1.2 expressed in HEK cells by whole cell voltage clamp analysis; format: cell-based
[7] = molecular target: Sodium channel protein type 8 subunit alpha (Homo sapiens, UniProt Q9UQD0); test: Inhibition of human Nav1.6 expressed in CHO cells by whole cell voltage clamp analysis; format: cell-based
Cytochrome P450 3A4 = Cytochrome P450 3A4 (Homo sapiens, UniProt P08684); test: Inhibition of CYP3A4 (unknown origin); format: ADME
[8] = Kinetic solubility of compound in PBS at pH 7.4; format: physicochemical; conditions: read-out: Kinetic_solubility
[9] = Plasma protein binding in human assessed as unbound fraction at 5 uM after 6 hrs by LC-MS/MS analysis based equilibrium dialysis method; format: ADME, cell-free
[10] = Apparent permeability across apical to basolateral side in MDCK cells by transwell assay; format: ADME, cell-based, Canis lupus familiaris; conditions: dog
[11] = Plasma protein binding in Sprague-Dawley rat assessed as unbound fraction at 5 uM after 6 hrs by LC-MS/MS analysis based equilibrium dialysis method; format: ADME, cell-free
[12] = Plasma protein binding in Beagle dog assessed as unbound fraction at 5 uM after 6 hrs by LC-MS/MS analysis based equilibrium dialysis method; format: ADME, cell-free, Canis lupus familiaris
[13] = Plasma protein binding in cynomolgus monkey assessed as unbound fraction at 5 uM after 6 hrs by LC-MS/MS analysis based equilibrium dialysis method; format: ADME, cell-free, Macaca fascicularis
[14] = Volume of distribution at steady state in Sprague-Dawley rat at 5 mg/kg, po or 1 mg/kg, iv measured upto 8 hrs by LC-MS/MS analysis; format: ADME, organism-based; conditions: in vivo
[15] = Volume of distribution at steady state in Beagle dog at 1 mg/kg, po or 0.5 mg/kg, iv measured upto 24 hrs by LC-MS/MS analysis; format: ADME, organism-based, Canis lupus familiaris; conditions: in vivo
[16] = Volume of distribution at steady state in cynomolgus monkey at 2 mg/kg, po or 1 mg/kg, iv measured upto 24 hrs by LC-MS/MS analysis; format: ADME, organism-based, Macaca fascicularis; conditions: in vivo
[17] = Half life in Sprague-Dawley rat at 5 mg/kg, po or 1 mg/kg, iv measured upto 8 hrs by LC-MS/MS analysis; format: ADME, organism-based; conditions: in vivo
[18] = Half life in Beagle dog at 1 mg/kg, po or 0.5 mg/kg, iv measured upto 24 hrs by LC-MS/MS analysis; format: ADME, organism-based, Canis lupus familiaris; conditions: in vivo
[19] = Half life in cynomolgus monkey at 2 mg/kg, po or 1 mg/kg, iv measured upto 24 hrs by LC-MS/MS analysis; format: ADME, organism-based, Macaca fascicularis; conditions: in vivo
[20] = Oral bioavailability in Sprague-Dawley rat at 5 mg/kg measured upto 8 hrs by LC-MS/MS analysis; format: ADME, organism-based; conditions: in vivo
[21] = Oral bioavailability in Beagle dog at 1 mg/kg measured upto 24 hrs by LC-MS/MS analysis; format: ADME, organism-based, Canis lupus familiaris; conditions: in vivo
[22] = Oral bioavailability in cynomolgus monkey at 2 mg/kg measured upto 24 hrs by LC-MS/MS analysis; format: ADME, organism-based, Macaca fascicularis; conditions: in vivo
Mus musculus = test: Antinociceptive activity in po dosed FVB hNav1.7 transgenic mouse model of inherited erythromelalgia harboring I848T mutation assessed as reduction in number of nociceptive aconitine injected after compound administration; format: functional, organism-based; conditions: for EC50: Mus musculus; for fEC50: route po
[23] = molecular target: Sodium channel protein type 4 subunit alpha (Homo sapiens, UniProt P35499); test: Inhibition of full length human Nav1.4 expressed in HEK cells by whole cell voltage clamp analysis; format: cell-based

Sequence of Sodium channel protein type 5 subunit alpha (Q14524 whole entry): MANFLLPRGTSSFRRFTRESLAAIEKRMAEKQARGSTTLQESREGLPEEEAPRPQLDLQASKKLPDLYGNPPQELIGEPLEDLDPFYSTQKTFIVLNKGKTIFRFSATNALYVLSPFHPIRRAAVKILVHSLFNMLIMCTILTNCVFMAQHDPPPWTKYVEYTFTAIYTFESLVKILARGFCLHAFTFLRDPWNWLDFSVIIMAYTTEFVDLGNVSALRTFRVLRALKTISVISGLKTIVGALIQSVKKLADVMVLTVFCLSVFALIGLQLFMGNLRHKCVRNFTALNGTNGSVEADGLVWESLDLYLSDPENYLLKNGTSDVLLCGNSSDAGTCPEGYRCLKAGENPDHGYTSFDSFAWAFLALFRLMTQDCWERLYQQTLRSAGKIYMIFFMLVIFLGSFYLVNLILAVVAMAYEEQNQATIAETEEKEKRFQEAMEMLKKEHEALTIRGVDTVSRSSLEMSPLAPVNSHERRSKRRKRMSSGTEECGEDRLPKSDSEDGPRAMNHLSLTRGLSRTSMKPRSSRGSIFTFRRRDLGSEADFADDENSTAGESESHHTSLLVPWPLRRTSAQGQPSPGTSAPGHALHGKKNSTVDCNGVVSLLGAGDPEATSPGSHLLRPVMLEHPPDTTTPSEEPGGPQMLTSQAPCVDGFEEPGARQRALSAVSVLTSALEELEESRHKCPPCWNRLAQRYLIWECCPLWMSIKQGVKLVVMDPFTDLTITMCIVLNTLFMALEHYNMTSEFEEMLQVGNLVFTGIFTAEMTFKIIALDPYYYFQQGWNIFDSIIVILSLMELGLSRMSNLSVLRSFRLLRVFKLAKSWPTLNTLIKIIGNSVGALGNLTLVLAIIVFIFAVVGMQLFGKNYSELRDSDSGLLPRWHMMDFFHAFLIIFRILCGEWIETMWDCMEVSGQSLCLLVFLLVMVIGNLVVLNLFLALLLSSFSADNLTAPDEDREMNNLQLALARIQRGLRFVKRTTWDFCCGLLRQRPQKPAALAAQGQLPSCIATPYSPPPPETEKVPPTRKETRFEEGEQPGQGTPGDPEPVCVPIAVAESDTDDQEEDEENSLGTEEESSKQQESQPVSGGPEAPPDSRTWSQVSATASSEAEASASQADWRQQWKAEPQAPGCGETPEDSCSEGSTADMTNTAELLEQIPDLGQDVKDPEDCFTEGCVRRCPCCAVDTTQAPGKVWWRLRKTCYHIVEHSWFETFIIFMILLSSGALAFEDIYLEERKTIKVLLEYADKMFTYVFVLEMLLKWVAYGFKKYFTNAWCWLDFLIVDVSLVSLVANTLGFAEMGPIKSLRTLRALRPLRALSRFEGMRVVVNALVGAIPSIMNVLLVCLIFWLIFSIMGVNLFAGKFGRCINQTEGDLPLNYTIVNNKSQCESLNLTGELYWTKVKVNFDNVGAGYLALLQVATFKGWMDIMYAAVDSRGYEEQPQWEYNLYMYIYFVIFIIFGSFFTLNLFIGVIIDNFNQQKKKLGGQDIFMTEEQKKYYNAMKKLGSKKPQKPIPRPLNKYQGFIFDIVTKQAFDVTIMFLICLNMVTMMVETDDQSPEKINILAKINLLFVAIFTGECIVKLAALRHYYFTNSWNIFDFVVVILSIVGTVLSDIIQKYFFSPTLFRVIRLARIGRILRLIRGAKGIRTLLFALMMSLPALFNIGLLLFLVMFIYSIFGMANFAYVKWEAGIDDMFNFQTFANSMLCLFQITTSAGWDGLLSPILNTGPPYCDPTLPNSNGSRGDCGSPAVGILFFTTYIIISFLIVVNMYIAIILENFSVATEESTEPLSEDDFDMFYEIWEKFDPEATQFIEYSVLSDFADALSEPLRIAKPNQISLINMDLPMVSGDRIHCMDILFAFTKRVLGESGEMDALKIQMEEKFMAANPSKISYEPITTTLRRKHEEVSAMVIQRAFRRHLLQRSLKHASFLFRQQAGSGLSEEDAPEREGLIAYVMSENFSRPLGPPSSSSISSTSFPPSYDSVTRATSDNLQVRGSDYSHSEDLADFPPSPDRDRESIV
Sequence of Sodium channel protein type 2 subunit alpha (Q99250 whole entry): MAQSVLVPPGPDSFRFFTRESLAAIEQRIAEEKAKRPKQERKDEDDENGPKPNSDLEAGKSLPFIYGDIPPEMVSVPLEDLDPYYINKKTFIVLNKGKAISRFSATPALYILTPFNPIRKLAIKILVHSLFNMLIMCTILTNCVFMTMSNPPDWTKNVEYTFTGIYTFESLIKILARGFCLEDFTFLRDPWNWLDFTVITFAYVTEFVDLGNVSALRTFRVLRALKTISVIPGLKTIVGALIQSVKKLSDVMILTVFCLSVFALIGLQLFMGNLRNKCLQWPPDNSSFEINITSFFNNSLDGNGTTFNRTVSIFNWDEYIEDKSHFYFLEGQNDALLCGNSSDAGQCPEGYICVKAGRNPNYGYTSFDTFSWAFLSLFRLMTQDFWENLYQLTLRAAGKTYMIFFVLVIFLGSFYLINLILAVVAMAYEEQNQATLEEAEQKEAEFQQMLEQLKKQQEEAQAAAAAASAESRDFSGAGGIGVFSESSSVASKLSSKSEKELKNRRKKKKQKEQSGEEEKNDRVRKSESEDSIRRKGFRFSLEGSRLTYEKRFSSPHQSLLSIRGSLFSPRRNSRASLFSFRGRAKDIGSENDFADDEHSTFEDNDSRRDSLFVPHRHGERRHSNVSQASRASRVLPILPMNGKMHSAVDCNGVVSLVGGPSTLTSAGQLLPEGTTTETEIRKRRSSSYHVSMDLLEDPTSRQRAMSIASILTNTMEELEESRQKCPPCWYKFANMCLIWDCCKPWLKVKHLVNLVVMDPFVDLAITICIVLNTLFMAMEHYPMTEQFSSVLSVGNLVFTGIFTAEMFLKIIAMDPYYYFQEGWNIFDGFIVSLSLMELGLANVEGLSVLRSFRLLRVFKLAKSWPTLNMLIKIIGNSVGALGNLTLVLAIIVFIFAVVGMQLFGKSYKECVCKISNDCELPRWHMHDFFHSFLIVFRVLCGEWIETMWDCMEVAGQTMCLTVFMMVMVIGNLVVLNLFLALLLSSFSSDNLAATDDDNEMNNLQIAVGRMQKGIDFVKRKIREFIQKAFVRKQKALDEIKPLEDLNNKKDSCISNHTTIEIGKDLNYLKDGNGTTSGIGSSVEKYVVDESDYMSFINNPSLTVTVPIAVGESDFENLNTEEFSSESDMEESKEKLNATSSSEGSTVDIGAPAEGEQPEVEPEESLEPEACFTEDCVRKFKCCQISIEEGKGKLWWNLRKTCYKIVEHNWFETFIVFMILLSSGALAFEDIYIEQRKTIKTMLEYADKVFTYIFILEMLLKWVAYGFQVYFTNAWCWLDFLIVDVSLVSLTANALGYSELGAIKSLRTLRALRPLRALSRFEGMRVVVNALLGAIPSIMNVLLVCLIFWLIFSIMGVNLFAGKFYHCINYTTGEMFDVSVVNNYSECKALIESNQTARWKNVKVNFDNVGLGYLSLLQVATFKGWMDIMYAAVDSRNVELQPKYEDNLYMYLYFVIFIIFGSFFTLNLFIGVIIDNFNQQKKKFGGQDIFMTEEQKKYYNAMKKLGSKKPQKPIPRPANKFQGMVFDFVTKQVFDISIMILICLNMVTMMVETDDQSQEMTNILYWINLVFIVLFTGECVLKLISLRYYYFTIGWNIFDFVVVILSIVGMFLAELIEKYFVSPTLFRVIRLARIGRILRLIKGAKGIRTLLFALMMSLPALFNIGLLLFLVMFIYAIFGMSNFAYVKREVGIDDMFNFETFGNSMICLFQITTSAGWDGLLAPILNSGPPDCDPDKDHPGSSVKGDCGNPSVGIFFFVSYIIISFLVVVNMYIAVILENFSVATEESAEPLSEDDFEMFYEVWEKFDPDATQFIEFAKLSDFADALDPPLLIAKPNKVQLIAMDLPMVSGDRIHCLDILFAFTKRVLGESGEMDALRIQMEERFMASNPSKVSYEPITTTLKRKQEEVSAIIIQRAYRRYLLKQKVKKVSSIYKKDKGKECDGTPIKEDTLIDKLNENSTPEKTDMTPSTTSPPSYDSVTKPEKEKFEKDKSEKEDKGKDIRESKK
Sequence of Cytochrome P450 3A4 (P08684 whole entry): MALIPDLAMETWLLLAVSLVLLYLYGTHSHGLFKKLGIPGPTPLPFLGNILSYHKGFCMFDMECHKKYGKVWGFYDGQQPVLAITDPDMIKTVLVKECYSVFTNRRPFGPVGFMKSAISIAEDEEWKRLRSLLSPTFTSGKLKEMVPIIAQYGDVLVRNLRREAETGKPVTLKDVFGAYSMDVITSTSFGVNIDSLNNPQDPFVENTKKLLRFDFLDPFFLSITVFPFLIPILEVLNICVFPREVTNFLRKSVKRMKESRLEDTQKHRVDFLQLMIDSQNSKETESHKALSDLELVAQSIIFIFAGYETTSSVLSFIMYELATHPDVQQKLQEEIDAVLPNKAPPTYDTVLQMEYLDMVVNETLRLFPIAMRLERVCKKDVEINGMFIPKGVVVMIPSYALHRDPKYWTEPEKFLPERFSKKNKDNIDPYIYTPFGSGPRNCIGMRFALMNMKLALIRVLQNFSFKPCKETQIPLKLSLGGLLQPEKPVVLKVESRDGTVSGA

CS(=O)(=O)NC(=O)c1cc(C2CC2)c(OCC2CN(C(c3ccccc3)c3ccccc3)C2)cc1F
IC50 [1]: 1100 nM | CLint scaled at 1 µM [2]: 6.7 mL/min/kg | CLint scaled at 1 µM [3]: 15 mL/min/kg | logD [4]: 1.8 | Ratio IC50 (Homo sapiens): 48

O=C(NS(=O)(=O)C1CC1)c1cc(C2CC2)c(OCC23CC4CC(CC(C4)C2)C3)cc1F
IC50 [1]: 260 nM | CLint scaled at 1 µM [2]: 18 mL/min/kg | CLint scaled at 1 µM [3]: 16 mL/min/kg | logD [4]: 3.2 | Ratio IC50 (Homo sapiens): 19

C[C@@H](c1cc(Cl)cc(Cl)c1)N1CCC(COc2cc(F)c(C(=O)NS(C)(=O)=O)cc2C2CC2)CC1
IC50 [1]: 1500 nM | CLint scaled at 1 µM [2]: 9.6 mL/min/kg | CLint scaled at 1 µM [3]: < 6.2 mL/min/kg | logD [4]: 2.3 | IC50 [5]: 202 nM | IC50 [6]: 38 nM | IC50 [7]: 198 nM | IC50 (Cytochrome P450 3A4): > 10000 nM | solubility kinetic [8]: 52 µM (≈ 28.3 µg/mL) | Fu [9]: 0.196% | Papp A→B [10]: 11 ×10⁻⁶ cm/s | Fu [11]: 0.278% | Fu [12]: 0.157% | Fu [13]: 0.129% | Vdss [14]: 0.6 L/kg | Vdss [15]: 0.33 L/kg | Vdss [16]: 0.29 L/kg | half-life [17]: 5 h | half-life [18]: 46 h | half-life [19]: 4.4 h | bioavailability [20]: 68% | bioavailability [21]: 100% | bioavailability [22]: 82% | EC50 (Mus musculus): 1100 nM | fEC50 (Mus musculus): 3.5 nM

O=C(NS(=O)(=O)N1CCC1)c1cc(C2CC2)c(OCC23CC4CC(CC(C4)C2)C3)cc1F
IC50 [1]: 870 nM | CLint scaled at 1 µM [2]: 10 mL/min/kg | CLint scaled at 1 µM [3]: 11 mL/min/kg | logD [4]: 3.1 | IC50 [6]: 18.9 nM | IC50 [23]: 8.5 nM | IC50 (Cytochrome P450 3A4): > 10000 nM | solubility kinetic [8]: 5.3 µM (≈ 2.45 µg/mL) | Fu [9]: 0.025% | Papp A→B [10]: 4.7 ×10⁻⁶ cm/s | Fu [11]: 0.013% | Fu [12]: 0.005% | Fu [13]: 0.025% | Vdss [14]: 0.38 L/kg | Vdss [15]: 0.17 L/kg | Vdss [16]: 0.3 L/kg | half-life [17]: 0.95 h | half-life [18]: 5.5 h | half-life [19]: 1.6 h | bioavailability [20]: 34% | bioavailability [21]: 50% | bioavailability [22]: 30% | EC50 (Mus musculus): 1700 nM | fEC50 (Mus musculus): 0.42 nM

CS(=O)(=O)NC(=O)c1cc(C2CC2)c(OCC2CCN(Cc3ccccc3)CC2)cc1F
IC50 [1]: > 30000 nM | CLint scaled at 1 µM [2]: 4.8 mL/min/kg | CLint scaled at 1 µM [3]: 15 mL/min/kg | logD [4]: 0.3 | Ratio IC50 (Homo sapiens): > 9.1

CS(=O)(=O)NC(=O)c1cc(C2CC2)c(OCC2CCN(Cc3ccc(Cl)cc3)CC2)cc1F
IC50 [1]: 27000 nM | CLint scaled at 1 µM [2]: 9.9 mL/min/kg | CLint scaled at 1 µM [3]: 15 mL/min/kg | Ratio IC50 (Homo sapiens): 667

CS(=O)(=O)NC(=O)c1cc(C2CC2)c(OCC2CCN(Cc3cc(Cl)cc(Cl)c3)CC2)cc1F
IC50 [1]: 7000 nM | CLint scaled at 1 µM [2]: 9.7 mL/min/kg | CLint scaled at 1 µM [3]: 15 mL/min/kg | logD [4]: 2 | Ratio IC50 (Homo sapiens): 58

O=C(NS(=O)(=O)C1COC1)c1cc(C2CC2)c(OCC23CC4CC(CC(C4)C2)C3)cc1F
IC50 [1]: 750 nM | CLint scaled at 1 µM [2]: 16 mL/min/kg | CLint scaled at 1 µM [3]: 6.7 mL/min/kg | logD [4]: 3.4 | Ratio IC50 (Homo sapiens): 20

CC(C)(c1cc(Cl)cc(Cl)c1)N1CCC(COc2cc(F)c(C(=O)NS(C)(=O)=O)cc2C2CC2)CC1
IC50 [1]: 3900 nM | CLint scaled at 1 µM [2]: 7.8 mL/min/kg | CLint scaled at 1 µM [3]: < 6.2 mL/min/kg | logD [4]: 3.9 | Ratio IC50 (Homo sapiens): 144

CS(=O)(=O)NC(=O)c1cc(C2CC2)c(OCC23CC4CC(CC(C4)C2)C3)cc1F
IC50 [1]: 1100 nM | CLint scaled at 1 µM [2]: 19 mL/min/kg | CLint scaled at 1 µM [3]: 17 mL/min/kg | logD [4]: 3.3

CS(=O)(=O)NC(=O)c1cc(C2CC2)c(OCC2CCN(C(=O)c3cc(Cl)cc(Cl)c3)CC2)cc1F
IC50 [1]: 6400 nM | CLint scaled at 1 µM [2]: 8.6 mL/min/kg | CLint scaled at 1 µM [3]: 7.5 mL/min/kg | logD [4]: 0.9 | Ratio IC50 (Homo sapiens): 183

CS(=O)(=O)NC(=O)c1cc(C2CC2)c(OCC2CCN(Cc3ccc(OC(F)(F)F)cc3)CC2)cc1F
IC50 [1]: 17000 nM | CLint scaled at 1 µM [2]: 9.9 mL/min/kg | logD [4]: 1.2 | Ratio IC50 (Homo sapiens): 531

CS(=O)(=O)NC(=O)c1cc(C2CC2)c(OCC2CN(Cc3ccccc3)C2)cc1F
IC50 [1]: > 30000 nM | logD [4]: 0.1

C[C@H](c1cc(Cl)cc(Cl)c1)N1CCC(COc2cc(F)c(C(=O)NS(C)(=O)=O)cc2C2CC2)CC1
CLint scaled at 1 µM [2]: 17 mL/min/kg | CLint scaled at 1 µM [3]: 16 mL/min/kg | logD [4]: 2.2

O=C(NS(=O)(=O)N1CCCC1)c1cc(C2CC2)c(OCC23CC4CC(CC(C4)C2)C3)cc1F
IC50 [1]: 1500 nM | CLint scaled at 1 µM [2]: 8.5 mL/min/kg | CLint scaled at 1 µM [3]: < 6.2 mL/min/kg | logD [4]: 4.4 | Ratio IC50 (Homo sapiens): 9

O=C(NS(=O)(=O)N1CCOCC1)c1cc(C2CC2)c(OCC23CC4CC(CC(C4)C2)C3)cc1F
IC50 [1]: 110 nM | CLint scaled at 1 µM [2]: 11 mL/min/kg | CLint scaled at 1 µM [3]: 12 mL/min/kg | logD [4]: 3.8 | Ratio IC50 (Homo sapiens): 1

CS(=O)(=O)NC(=O)c1cc(C2CC2)c(OCC2CCN(C(c3ccccc3)c3ccccc3)CC2)cc1F
IC50 [1]: 590 nM | CLint scaled at 1 µM [2]: 5.5 mL/min/kg | CLint scaled at 1 µM [3]: < 6.2 mL/min/kg | logD [4]: 2.7 | Ratio IC50 (Homo sapiens): 8.9
